# pIC50: −log10 of the molar value. Values joined by “and” are separate entries in the source; they are usually repeats but may differ in a detail not shown here. Equal values may be shown once. Where a name gives a salt, the structure may show the parent alone.
# Tests used:
# [1] = system: Human cervical cancer cells (HeLa S3); test: Effect by combined use with paclitaxel in cells, WST-8 method; type: cell-based; conditions: three days, DMSO = 0%; for inhibition at 1 µM: HeLa S3, compound 1.0 μM alone
# Protocol: Fetal calf serum (FCS) was purchased from Moregate Biotech, DMEM medium from Invitrogen Corp., paclitaxel (tradename: Taxol) from Sigma-Aldrich, Inc., and WST-8 from Kishida Chemical Co., Ltd.
# (§1) Human cervical cancer cells (HeLa S3) were obtained from the American Type Culture Collection (ATCC).
# Cells were suspended in a DMEM medium containing 10% FCS, and the cell suspension was dispensed to two 96-well plastic plates at a rate of 750 cells/100 microliters per well. The plates were incubated overnight in 5% CO2-95% air at 37° C. A drug was subjected to graded dilution in dimethylsulfoxide and further diluted with […] a DMEM medium containing 10% FCS and also containing 2 nM paclitaxel. Then, the dilutions were each dispensed to one of the plates on which cells had been disseminated, at a rate of 100 microliters per well. The final concentration of paclitaxel at this stage was 1 nM. Also, the concentrations in the case of sole administration of the compound according to the invention were 0.03, 0.1, 0.3, 1 and 3 μM. The plates were incubated for further three days in 5% CO2-95% air at 37° C. Cell growth after incubation was measured by the WST-8 method (H. Tominaga, et al., Anal. Commun., 36, 47-50 (1999)). Here, the WST-8 method refers to a method in which 20 microliters of a WST-8 reagent solution is added to each well, incubation is conducted at 37° C. for 45 minutes, the plate is stirred, and the amount of formazan produced is measured by a colorimetric method to determine the inhibitory rate of the drug. The growth inhibitory effects of paclitaxel and of the compound according to the invention were determined, with the value obtained in sole treatment of DMSO being defined as 0%.
# [2] = system: Human cervical cancer cells (HeLa S3); test: Cell growth inhibitory effect, WST-8 method; type: cell-based; conditions: 72 h, HeLa S3, three days incubation
# Protocol: Fetal calf serum (FCS) was purchased from Moregate Biotech, and DMEM medium was purchased from Invitrogen Corp. WST-8 was purchased from Kishida Chemical Co., Ltd.
# as §1
# Cells were suspended in a DMEM medium containing 10% FCS, and the cell suspension was dispensed to a 96-well plastic plate at a rate of 750 cells/100 microliters per well. The plate was incubated overnight in 5% CO2-95% air at 37° C. A drug was subjected to graded dilution in dimethylsulfoxide and further diluted with a DMEM medium containing 10% FCS. Then, the dilution was dispensed to the plate on which cells had been disseminated, at a rate of 100 microliters per well. The plate was incubated for further three days in 5% CO2-95% air at 37° C. Cell growth after incubation was measured by the WST-8 method (H. Tominaga, et al., Anal. Commun., 36, 47-50 (1999)). Here, the WST-8 method refers to a method in which 20 microliters of a WST-8 reagent solution is added to each well, incubation is conducted at 37° C. for 45 minutes, the plate is stirred, and the amount of formazan produced is measured by a calorimetric method to determine the inhibitory rate of the drug. The concentration for 50% growth inhibition (EC50, μM) of the compound was determined.
# [3] = molecular target: T1, Aurora A (Homo sapiens, UniProt O14965); test: Aurora A inhibitory action (Kemptide substrate, [γ-33P]ATP, 20 μM ATP); type: biochemical; conditions: 30° C., 20 minutes
# T1 construct: histidine tag (N); made in house; host or cells: Escherichia coli BL21-CodonPlus (DE3)-RIL
# T1 sequence (O14965 1-403): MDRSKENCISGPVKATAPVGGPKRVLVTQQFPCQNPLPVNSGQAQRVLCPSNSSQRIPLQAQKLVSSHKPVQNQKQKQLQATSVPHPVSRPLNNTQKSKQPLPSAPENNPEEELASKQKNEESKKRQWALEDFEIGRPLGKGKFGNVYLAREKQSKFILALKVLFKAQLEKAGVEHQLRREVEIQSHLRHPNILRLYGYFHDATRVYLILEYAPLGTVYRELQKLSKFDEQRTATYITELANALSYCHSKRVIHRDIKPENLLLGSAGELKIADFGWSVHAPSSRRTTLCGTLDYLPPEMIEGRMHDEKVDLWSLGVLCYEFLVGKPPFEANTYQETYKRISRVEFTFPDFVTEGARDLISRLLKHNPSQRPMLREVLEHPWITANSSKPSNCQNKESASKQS
# Text: (§2) cDNA of Aurora A having histidine tag fused at the amino terminal was integrated into an expression vector, which was then highly expressed in Escherichia coli BL21-CodonPlus (DE3)-RIL cells. The Escherichia coli cells were recovered and solubilized, and then the histidine-tagged Aurora A protein was adsorbed onto a nickel chelate column and eluted from the column with imidazole. The active fraction was desalted with a desalting column to give a pure enzyme.
# For measurement of the activity of Aurora A, the substrate used was Kemptide (Leu-Arg-Arg-Ala-Ser-Leu-Gly) (SEQ.ID.NO.: 1), a synthetic peptide purchased from Sigma-Aldrich, Inc. [Certificate of analysis (Upstate, Inc.)].
# Reaction was conducted by a partial modification of a method by Upstate, Inc. [Kinase Profiler™ Assay Protocols]. The amount of the reaction liquid was 21.1 μL, and the composition of the reaction buffer (R2 buffer) was 50 mM Tris-hydrochloride buffer (pH 7.4)/15 mM magnesium acetate/0.2 mM ethylenediamine-N,N,N′,N′-tetraacetate (EDTA). To this, purified Aurora A, 100 μM of a substrate peptide, 20 μM of unlabeled adenosine triphosphate (ATP) and 0.5 μCi of [γ-^33P] labeled ATP (2,500 Ci/mmole or more) were added, and the mixture was reacted at 30° C. for 20 minutes. Then, 10 μL of 350 mM phosphate buffer was added to the reaction system to stop the reaction. The substrate peptide was adsorbed on a P81 paper filter 96-well plate and then washed with 130 mM phosphate buffer for several times. The radiation activity of the peptide was measured with a liquid scintillation counter. The [γ-^33P] labeled ATP was purchased from Amersham Biosciences Co., Ltd.
# (§3) The compound to be tested was added to the reaction system such that a dilution series of the compound in dimethylsulfoxide was first prepared, and 1.1 μL of this solution was added. A control was provided by adding 1.1 μL of DMSO to the reaction system.
# [4] = molecular target: T2, Aurora B (Homo sapiens, UniProt Q96GD4); test: Aurora B inhibitory action (Kemptide substrate, [γ-33P]ATP, 100 μM ATP); type: biochemical; conditions: 30° C., 20 minutes
# T2 construct: histidine tag (N); made in house; host or cells: Escherichia coli BL21-CodonPlus (DE3)-RIL
# Text: as §2, with “of Aurora B having histidine” for “of Aurora A having histidine”
# For measurement of the activity of Aurora B, the substrate used was Kemptide (Leu-Arg-Arg-Ala-Ser-Leu-Gly) (SEQ.ID.NO.: 1), a synthetic peptide purchased from Sigma-Aldrich, Inc. [Certificate of analysis (Upstate, Inc.)].
# Reaction was conducted by a partial modification of the method of activity measurement for Aurora A. The amount of the reaction liquid was 21.1 μL, and the composition of the reaction buffer (R2 buffer) was 50 mM Tris-hydrochloride buffer (pH 7.4)/15 mM magnesium acetate/0.2 mM ethylenediamine-N,N,N′,N′-tetraacetate (EDTA). To this, purified Aurora B, 100 μM of a substrate peptide, 100 μM of unlabeled adenosine triphosphate (ATP) and 1 μCi of [γ-^33P] labeled ATP (2,500 Ci/mmole or more) were added, and the mixture was reacted at 30° C. for 20 minutes. Then, 10 μL of 350 mM phosphate buffer was added to the reaction system to stop the reaction. The substrate peptide was adsorbed on a P81 paper filter 96-well plate and then washed with 130 mM phosphate buffer for several times. The radiation activity of the peptide was measured with a liquid scintillation counter. The [γ-^33P] labeled ATP was purchased from Amersham Biosciences Co., Ltd.
# as §3
# [5] = HeLa S3, compound 1.0 μM + paclitaxel 1 nM
# [6] = Homo sapiens, HeLa S3, 72 h, read-out: Cell growth inhibitory effect by sole administration of the compound of Example (%)
# T2 sequence (Q96GD4 whole entry): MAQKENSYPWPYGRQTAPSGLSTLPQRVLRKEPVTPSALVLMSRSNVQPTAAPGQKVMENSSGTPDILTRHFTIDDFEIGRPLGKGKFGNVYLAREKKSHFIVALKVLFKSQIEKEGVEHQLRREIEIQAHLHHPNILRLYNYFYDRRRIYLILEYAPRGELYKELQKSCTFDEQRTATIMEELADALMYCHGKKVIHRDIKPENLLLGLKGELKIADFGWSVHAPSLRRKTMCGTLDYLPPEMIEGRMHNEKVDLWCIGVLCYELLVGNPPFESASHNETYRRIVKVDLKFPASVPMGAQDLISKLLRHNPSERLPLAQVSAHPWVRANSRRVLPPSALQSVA
Structure (SMILES),"Cell growth inhibitory effect by combined administration of paclitaxel and the compound of Example (%) [1, 5]","inhibition at 1 µM [1, 6]",pIC50 [2],pIC50 [3],pIC50 [4],"Cell growth inhibitory effect by combined administration of paclitaxel and the compound of Example (%) ([1]; HeLa S3, compound 0.1 μM + paclitaxel 1 nM)","inhibition at 0.1 µM ([1]; Homo sapiens, HeLa S3, 72 h, HeLa S3, compound 0.1 μM alone, read-out: Cell growth inhibitory effect by sole administration of the compound of Example (%))","Cell growth inhibitory effect by sole administration of paclitaxel (1 nM) (%) ([1]; HeLa S3, paclitaxel 1 nM alone)","inhibition at 0.001 µM ([1]; Homo sapiens, HeLa S3, 72 h, HeLa S3, paclitaxel 1 nM alone, read-out: Cell growth inhibitory effect by sole administration of paclitaxel (1 nM) (%))"
"Cc1cc(Nc2cc[nH]n2)nc(CN2C[C@@H]3C[C@H]2CN3C(=O)c2cccc(Cl)c2F)n1 [Example 1, 2-(((1S,4S)-5-(3-chloro-2-fluorobenzoyl)-2,5-diazabicyclo[2.2.1]hept-2-yl)methyl)-6-methyl-N-1H-pyrazol-3-ylpyrimidine-4-amine]",83.0%,14.3%,5.29,8.52,6.19,,,,
"O=C(c1cccc(C(F)(F)F)c1F)N1C[C@@H]2C[C@H]1CN2Cc1nccc(Nc2cc[nH]n2)n1 [Example 6, 2-(((1S,4S)-5-(2-fluoro-3-(trifluoromethyl)benzoyl)-2,5-diazabicyclo[2.2.1]hept-2-yl)methyl)-N-1H-pyrazol-3-ylpyrimidine-4-amine]",71.7%,1.7%,5.01,8.21,5.55,,,,
Cc1cc(Nc2cc(C)[nH]n2)nc(CN2C[C@@H]3C[C@H]2CN3C(=O)c2cccc(Cl)c2F)n1 [Example 7],,,,8.24,6.52,,,,
"Cc1cc(Nc2ccnc(CN3C[C@@H]4C[C@H]3CN4C(=O)c3cccc(Cl)c3F)n2)n[nH]1 [Example 9, 2-(((1S,4S)-5-(3-chloro-2-fluorobenzoyl)-2,5-diazabicyclo[2.2.1]hept-2-yl)methyl)-N-(5-methyl-1H-pyrazol-3-yl)pyrimidine-4-amine]",79.5%,12.4%,,8.01,6.16,,,,
"O=C(c1cccc(Cl)c1Cl)N1C[C@@H]2C[C@H]1CN2Cc1cncc(Nc2cc[nH]n2)n1 [Example 10, 6-(((1S,4S)-5-(2,3-dichlorobenzoyl)-2,5-diazabicyclo[2.2.1]hept-2-yl)methyl)-N-1H-pyrazol-3-ylpyrazine-2-amine trifluoroacetate]",84.8%,8.9%,5.34,8.15,5.68,,,,
O=C(c1cccc(C(F)(F)F)c1Cl)N1C[C@H]2C[C@@H]1CN2Cc1cncc(Nc2cc[nH]n2)n1 [Example 12],,,,8.32,5.64,,,,
"CN(C)C(=O)c1cc(CN2C[C@@H]3C[C@H]2CN3C(=O)c2cccc(Cl)c2F)nc(Nc2nccs2)c1 [Example 21, 2-(((1S,4S)-5-(3-chloro-2-fluorobenzoyl)-2,5-diazabicyclo[2.2.1]hept-2-yl)methyl)-N,N-dimethyl-6-(1,3-thiazol-2-ylamino)isonicotinamide]",,,6.17,8.89,6.59,81.3%,14.9%,,
"CN(C)C(=O)c1cc(CN2C[C@@H]3C[C@H]2CN3C(=O)c2cccc(C(F)(F)F)c2F)nc(Nc2nccs2)c1 [Example 22, 2-(((1S,4S)-5-(2-fluoro-3-(trifluoromethyl)benzoyl)-2,5-diazabicyclo[2.2.1]hept-2-yl)methyl)-N,N-dimethyl-6-(1,3-thiazol-2-ylamino)isonicotinamide trifluoroacetate]",,,,8.85,6.23,,,,
"CN(C)C(=O)c1cc(CN2C[C@@H]3C[C@H]2CN3C(=O)c2cccc(Cl)c2C#N)nc(Nc2nccs2)c1 [Example 23, 2-(((1S,4S)-5-(3-chloro-2-cyanobenzoyl)-2,5-diazabicyclo[2.2.1]hept-2-yl)methyl)-N,N-dimethyl-6-(1,3-thiazol-2-ylamino)isonicotinamide trifluoroacetate]",,,,8.85,6.48,,,,
"CN(C)C(=O)c1cc(CN2C[C@@H]3C[C@H]2CN3C(=O)c2cccc(C(F)(F)F)c2C#N)nc(Nc2nccs2)c1 [Example 24, 2-(((1S,4S)-5-(2-cyano-3-(trifluoromethyl)benzoyl)-2,5-diazabicyclo[2.2.1]hept-2-yl)methyl)-N,N-dimethyl-6-(1,3-thiazol-2-ylamino)isonicotinamide]",,,,8.96,6.72,,,,
"CC(=O)O[C@H]1C(=O)[C@@]2(C)[C@H]([C@H](OC(=O)c3ccccc3)[C@]3(O)C[C@H](OC(=O)[C@H](O)[C@@H](NC(=O)c4ccccc4)c4ccccc4)C(C)=C1C3(C)C)[C@]1(OC(C)=O)CO[C@@H]1C[C@@H]2O [paclitaxel, reference compound]",,,,,,,,47.1% and 51.4%,47.2%

# — patent US8101621B2, “Aminopyridine derivatives having aurora a selective inhibitory action” (MSD K.K., priority 2006, dated 2012)
